Entries after “also recorded” stand apart in the source; their conditions may differ.
How the values were obtained:
patients with lymphedema = type: in vivo, human; settings: donepizil 5 mg orally daily
Text: The improvement in perfusion within the small arterioles decreases the hydrostatic pressure at the end arterioles and therefore reduces interstitial fluid accumulation that impedes the return of lymph fluid within the lymphatic vessels. The physics model for this phenomenon makes use of Bernouli's equation and its relationship to a Venturi tube. Hydrostatic pressure proximal to a relative stricture creates a pressure gradient that leads to increased transudation that overwhelms the capacity of the lymphatic system to manage. The vasodilatory effects of the parasympathetic nervous system upon small arterioles produces improved perfusion and lessens the accumulation of lymphedema. A common example of lymphedema occurs following joint replacement surgery with swelling that persists for three to six months and sometimes permanently. Lymphedema following joint replacement surgery slows recovery and creates pain while predisposing to deep vein thrombosis and infection.

[1] = tested on: patients with rheumatologic conditions (RA, SLE, PMR, polymyositis); experiment: Patient case histories: rheumatological conditions; type: in vivo, human
Text: The use of an acetylcholinesterase inhibitor raises level of acetylcholine by inhibition of cholinesterase. The Increased levels of acetylcholine stimulate neuronal receptors of the parasympathetic nervous system and non-neuronal receptors associated with the intima of blood vessels and leukocytes. This dual effect of improving flow within the microvascular circulation and stabilization of leukocytes and their adhesion to the wall of blood vessel produces the anti-inflammatory effect that is observed with the use of an acetylcholinesterase inhibitor for treatment of rheumatologic diseases.

## COc1cc2c(cc1OC)C(=O)C(CC1CCN(Cc3ccccc3)CC1)C2 (stereo not drawn) [donepizil, 1-benzyl-4->(5,6-dimethoxy-1-indanon)-2-yl methylpiperidine]
Patients with lymphedema
  side effects: suffered symptoms of diarrhea or nausea
[1]; donepizil 5 mg orally daily
  clinical outcome (movement, pain, sleep, edema): return of movement in their feet bilaterally; also recorded: improved sleep pattern and decreased pain; also recorded: edema previously noted in their feet bilaterally resolved; also recorded: became ambulatory; also recorded: improvement in their pain complaints and decreased swelling in their ankles bilaterally
[1]; donepizil 5 mg orally daily, Polymyalgia Rheumatica
  erythrocyte sedimentation rate (ESR), follow up: in the normal range
[1]; donepizil 10 mg daily, Systemic Lupus Erythematosis
  clinical outcome (strength, swelling, vision): improved strength in their arms; also recorded: resolved as well as dysesthesias; also recorded: improved but not sufficient to allow for ambulation; also recorded: no return of vision; also recorded: return of movement in their feet bilaterally with decreased lower extremity swelling
[1]; donepizil 10 mg, SLE patient with urinary retention
  post void residuals: less than 100 cc
[1]; donepizil 5-10 mg daily
  side effects: no symptoms of diarrhea or nausea; also recorded: without incident, adverse side effects or deterioration in their condition; also recorded: no symptoms of diarrhea; also recorded: no untoward side effects
